# Assay results taken from ChEMBL document CHEMBL4028801, “A multifactorial approach to hepatobiliary transporter assessment enables improved therapeutic compound development” (Toxicol Sci, 2013).
# Counter-ions that a name gives are not always drawn.
# Assays:
# [1] = biological target: ATP-binding cassette sub-family C member 2 (Homo sapiens, UniProt Q92887); test: Inhibition of human MRP2 overexpressed in Sf9 cell membrane vesicles assessed as uptake of [3H]-estradiol-17beta-D-glucuronide in presence of ATP and GSH measured after 20 mins by membrane vesicle transport assay
# Sequence of ATP-binding cassette sub-family C member 2 (Q92887 whole entry): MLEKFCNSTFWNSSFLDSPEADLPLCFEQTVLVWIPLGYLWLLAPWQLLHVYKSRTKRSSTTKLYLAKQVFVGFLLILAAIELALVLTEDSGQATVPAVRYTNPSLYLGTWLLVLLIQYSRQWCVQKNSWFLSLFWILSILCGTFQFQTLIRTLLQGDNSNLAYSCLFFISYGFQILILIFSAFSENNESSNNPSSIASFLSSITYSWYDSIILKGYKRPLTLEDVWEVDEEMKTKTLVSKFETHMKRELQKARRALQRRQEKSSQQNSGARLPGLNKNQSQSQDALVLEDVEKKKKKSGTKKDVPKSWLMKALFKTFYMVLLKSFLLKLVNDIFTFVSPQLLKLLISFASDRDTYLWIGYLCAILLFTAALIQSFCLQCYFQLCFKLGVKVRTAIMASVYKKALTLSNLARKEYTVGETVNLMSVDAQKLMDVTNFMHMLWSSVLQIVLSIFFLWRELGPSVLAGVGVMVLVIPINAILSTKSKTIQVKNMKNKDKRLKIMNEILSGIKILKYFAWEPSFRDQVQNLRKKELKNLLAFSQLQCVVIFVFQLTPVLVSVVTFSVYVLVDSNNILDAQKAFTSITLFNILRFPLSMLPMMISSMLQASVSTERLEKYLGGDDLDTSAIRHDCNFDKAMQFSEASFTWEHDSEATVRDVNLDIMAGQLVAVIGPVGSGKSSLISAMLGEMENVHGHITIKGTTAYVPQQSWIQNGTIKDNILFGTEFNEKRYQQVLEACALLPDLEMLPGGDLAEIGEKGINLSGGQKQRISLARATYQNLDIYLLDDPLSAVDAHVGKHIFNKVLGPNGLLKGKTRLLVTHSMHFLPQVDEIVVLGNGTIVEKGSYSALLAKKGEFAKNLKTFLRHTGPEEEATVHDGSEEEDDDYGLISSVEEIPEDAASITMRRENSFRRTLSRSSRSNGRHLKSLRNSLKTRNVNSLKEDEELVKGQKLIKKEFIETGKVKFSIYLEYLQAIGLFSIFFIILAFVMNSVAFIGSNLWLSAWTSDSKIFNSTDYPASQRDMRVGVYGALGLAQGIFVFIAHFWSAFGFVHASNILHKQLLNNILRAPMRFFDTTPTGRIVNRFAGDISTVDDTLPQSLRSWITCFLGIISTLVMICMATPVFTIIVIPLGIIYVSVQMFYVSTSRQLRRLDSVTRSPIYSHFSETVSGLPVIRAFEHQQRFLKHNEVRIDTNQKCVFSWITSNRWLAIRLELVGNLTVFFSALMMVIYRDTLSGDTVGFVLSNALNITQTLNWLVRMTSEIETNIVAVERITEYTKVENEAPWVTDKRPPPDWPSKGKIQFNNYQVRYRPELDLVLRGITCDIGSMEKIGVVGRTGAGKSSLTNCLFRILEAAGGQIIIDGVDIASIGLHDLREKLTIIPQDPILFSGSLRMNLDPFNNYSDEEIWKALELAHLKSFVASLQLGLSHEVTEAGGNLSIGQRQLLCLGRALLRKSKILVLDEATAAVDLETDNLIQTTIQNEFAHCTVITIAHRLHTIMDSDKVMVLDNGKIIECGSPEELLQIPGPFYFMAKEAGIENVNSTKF
# Bile salt export pump = Bile salt export pump (Homo sapiens, UniProt O95342); test: Inhibition of human BSEP overexpressed in Sf9 cell membrane vesicles assessed as uptake of [3H]-taurocholate in presence of ATP measured after 15 to 20 mins by membrane vesicle transport assay; assay type: ADME, cell-based
# Sequence of Bile salt export pump (O95342 whole entry): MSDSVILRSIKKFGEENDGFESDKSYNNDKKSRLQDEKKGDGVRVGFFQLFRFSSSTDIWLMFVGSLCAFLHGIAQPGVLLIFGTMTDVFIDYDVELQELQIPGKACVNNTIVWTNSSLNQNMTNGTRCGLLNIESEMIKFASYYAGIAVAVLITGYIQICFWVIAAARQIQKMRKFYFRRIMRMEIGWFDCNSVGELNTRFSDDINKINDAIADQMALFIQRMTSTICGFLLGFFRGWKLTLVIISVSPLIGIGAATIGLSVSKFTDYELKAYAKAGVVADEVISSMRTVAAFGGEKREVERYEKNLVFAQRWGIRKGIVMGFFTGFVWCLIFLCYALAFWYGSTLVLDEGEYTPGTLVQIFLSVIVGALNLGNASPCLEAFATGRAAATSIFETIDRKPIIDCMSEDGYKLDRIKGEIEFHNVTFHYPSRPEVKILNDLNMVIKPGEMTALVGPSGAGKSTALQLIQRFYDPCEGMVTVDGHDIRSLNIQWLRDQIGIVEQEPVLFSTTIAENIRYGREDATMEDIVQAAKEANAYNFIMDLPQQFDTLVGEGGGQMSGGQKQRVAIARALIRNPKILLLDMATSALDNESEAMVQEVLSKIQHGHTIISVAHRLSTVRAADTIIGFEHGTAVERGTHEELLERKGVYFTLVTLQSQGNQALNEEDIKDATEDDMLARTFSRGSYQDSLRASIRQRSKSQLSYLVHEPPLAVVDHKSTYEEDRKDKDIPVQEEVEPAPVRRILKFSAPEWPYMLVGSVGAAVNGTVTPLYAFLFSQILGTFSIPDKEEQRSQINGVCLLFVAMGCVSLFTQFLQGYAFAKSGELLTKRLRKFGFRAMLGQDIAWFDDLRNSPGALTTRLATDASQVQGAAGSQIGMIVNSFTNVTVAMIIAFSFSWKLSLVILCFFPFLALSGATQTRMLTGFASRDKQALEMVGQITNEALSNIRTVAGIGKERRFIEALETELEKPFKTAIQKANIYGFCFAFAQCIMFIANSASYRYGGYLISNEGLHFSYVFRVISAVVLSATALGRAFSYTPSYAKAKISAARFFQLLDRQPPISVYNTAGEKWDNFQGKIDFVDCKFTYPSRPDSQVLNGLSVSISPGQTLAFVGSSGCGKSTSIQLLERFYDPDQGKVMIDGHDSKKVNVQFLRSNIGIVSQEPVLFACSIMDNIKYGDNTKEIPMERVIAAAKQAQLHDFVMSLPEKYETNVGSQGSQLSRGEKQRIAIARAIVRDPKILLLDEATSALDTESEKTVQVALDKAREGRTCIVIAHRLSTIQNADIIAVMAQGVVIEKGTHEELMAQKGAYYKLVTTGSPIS
# [2] = biological target: T1, ATP-binding cassette sub-family C member 4 (Homo sapiens, UniProt O15439); test: Inhibition of human MRP4 overexpressed in Sf9 cell membrane vesicles assessed as uptake of [3H]-estradiol-17beta-D-glucuronide in presence of ATP and GSH measured after 20 mins by membrane vesicle transport assay; assay type: ADME, cell-based
# T1 sequence (O15439 whole entry): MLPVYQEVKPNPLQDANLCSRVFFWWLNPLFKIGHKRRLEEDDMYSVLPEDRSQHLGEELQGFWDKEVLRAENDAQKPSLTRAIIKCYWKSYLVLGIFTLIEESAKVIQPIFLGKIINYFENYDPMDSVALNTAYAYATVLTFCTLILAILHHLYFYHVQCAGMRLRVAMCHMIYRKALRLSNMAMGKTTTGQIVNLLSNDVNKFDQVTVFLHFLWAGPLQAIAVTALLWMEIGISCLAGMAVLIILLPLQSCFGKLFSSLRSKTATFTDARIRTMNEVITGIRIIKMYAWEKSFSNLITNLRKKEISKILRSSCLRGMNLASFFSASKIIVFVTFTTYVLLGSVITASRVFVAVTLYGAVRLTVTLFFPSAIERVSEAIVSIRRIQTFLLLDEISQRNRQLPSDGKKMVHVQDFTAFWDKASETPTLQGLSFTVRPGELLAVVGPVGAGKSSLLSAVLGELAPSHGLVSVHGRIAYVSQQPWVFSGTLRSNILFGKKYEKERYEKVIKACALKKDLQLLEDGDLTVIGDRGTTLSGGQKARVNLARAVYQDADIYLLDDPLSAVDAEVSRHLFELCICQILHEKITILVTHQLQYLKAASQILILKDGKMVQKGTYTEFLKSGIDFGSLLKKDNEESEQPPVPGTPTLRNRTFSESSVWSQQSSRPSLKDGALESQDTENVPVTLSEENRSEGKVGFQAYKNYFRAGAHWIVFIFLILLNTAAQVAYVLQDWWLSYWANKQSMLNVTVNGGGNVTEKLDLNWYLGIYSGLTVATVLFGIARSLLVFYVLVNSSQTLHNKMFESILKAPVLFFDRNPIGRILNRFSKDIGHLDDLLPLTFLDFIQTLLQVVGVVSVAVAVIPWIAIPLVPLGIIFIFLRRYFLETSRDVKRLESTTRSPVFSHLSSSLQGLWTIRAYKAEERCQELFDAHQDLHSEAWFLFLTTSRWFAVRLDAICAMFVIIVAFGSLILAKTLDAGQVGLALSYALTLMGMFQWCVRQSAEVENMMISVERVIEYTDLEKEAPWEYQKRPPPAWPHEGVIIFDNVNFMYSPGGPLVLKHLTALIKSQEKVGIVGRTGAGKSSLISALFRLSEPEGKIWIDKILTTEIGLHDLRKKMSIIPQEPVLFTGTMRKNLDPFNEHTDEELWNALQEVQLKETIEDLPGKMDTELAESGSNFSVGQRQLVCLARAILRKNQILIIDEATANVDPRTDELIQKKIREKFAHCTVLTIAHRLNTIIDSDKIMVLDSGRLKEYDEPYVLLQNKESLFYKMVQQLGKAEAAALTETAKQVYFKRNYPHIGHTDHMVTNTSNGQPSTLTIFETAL
# [3] = biological target: ATP-binding cassette sub-family C member 3 (Homo sapiens, UniProt O15438); test: Inhibition of human MRP3 overexpressed in Sf9 insect cell membrane vesicles assessed as uptake of [3H]-estradiol-17beta-D-glucuronide in presence of ATP and GSH measured after 10 mins by membrane vesicle transport assay; assay type: ADME, cell-based
# Sequence of ATP-binding cassette sub-family C member 3 (O15438 whole entry): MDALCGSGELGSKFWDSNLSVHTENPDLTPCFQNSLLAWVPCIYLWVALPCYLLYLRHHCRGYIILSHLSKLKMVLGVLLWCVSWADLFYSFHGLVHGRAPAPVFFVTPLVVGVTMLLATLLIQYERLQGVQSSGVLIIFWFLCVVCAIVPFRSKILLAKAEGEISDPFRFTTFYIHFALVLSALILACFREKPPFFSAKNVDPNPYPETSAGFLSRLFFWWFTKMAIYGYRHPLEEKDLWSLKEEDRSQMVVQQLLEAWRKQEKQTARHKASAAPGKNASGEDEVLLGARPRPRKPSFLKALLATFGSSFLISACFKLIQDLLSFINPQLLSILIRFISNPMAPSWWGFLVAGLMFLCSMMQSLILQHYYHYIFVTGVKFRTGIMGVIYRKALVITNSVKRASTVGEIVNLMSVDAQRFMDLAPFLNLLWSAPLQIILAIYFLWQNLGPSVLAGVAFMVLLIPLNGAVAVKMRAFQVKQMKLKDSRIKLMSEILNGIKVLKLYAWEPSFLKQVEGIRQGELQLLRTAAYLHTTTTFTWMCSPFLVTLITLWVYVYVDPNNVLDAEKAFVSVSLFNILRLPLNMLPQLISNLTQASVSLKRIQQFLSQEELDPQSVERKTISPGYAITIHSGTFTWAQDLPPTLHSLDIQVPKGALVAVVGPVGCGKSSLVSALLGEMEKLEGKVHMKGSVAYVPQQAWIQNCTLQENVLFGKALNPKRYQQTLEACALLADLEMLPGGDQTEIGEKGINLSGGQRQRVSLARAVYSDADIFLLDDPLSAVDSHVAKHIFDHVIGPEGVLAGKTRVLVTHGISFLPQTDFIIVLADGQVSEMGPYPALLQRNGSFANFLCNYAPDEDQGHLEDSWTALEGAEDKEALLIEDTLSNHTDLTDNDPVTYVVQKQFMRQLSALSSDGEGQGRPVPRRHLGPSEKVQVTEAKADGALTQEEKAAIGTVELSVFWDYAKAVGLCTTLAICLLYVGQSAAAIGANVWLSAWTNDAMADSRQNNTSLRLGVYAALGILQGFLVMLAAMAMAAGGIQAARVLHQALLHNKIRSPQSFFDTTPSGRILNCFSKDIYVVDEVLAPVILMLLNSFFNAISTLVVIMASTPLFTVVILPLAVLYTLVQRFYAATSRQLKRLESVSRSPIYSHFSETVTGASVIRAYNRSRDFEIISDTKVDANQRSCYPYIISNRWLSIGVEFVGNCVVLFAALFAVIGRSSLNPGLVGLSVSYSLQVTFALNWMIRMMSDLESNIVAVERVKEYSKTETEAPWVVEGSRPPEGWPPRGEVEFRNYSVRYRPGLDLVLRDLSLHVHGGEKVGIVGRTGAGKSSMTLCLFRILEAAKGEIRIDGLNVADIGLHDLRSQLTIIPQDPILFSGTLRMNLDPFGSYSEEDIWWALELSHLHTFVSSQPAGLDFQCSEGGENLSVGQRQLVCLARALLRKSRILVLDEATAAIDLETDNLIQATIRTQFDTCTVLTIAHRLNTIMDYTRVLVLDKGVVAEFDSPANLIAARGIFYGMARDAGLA
Compound,IC50 [1] [µM],IC50 (Bile salt export pump) [µM],IC50 [2] [µM],IC50 [3] [µM]
CN1C(C(=O)Nc2ccccn2)=C(O)c2ccccc2S1(=O)=O [PIROXICAM],> 133,> 133,> 133,> 133
O=C(c1ccc(F)cc1)C1CCN(CCn2c(=O)[nH]c3ccccc3c2=O)CC1 [KETANSERIN],> 133,> 133,> 133,> 133
CCCCN1CCCCC1C(=O)Nc1c(C)cccc1C (stereo not drawn) [BUPIVACAINE HYDROCHLORIDE],> 133,> 133,> 133,> 133
Cc1cn([C@@H]2C[C@@H](O)[C@H](CO)O2)c(=O)[nH]c1=O [TELBIVUDINE],> 133,> 133,> 133,> 133
CCN(CC)CCNC(=O)c1cc(S(C)(=O)=O)ccc1OC [TIAPRIDE],> 133,> 133,> 133,> 133
COc1nc(N)nc2c1ncn2[C@@H]1O[C@H](CO)[C@@H](O)[C@@H]1O [NELARABINE],> 133,> 133,> 133,> 133
O=C(NCCN1CCOCC1)c1ccc(Cl)cc1 [MOCLOBEMIDE],> 133,> 133,> 133,> 133
N[C@@H](C(=O)N[C@@H]1C(=O)N2C(C(=O)O)=C(Cl)CS[C@H]12)c1ccccc1 [CEFACLOR ANHYDROUS],> 133,> 133,> 133,> 133
C[C@H]1C[C@H]2[C@@H]3CCC4=CC(=O)C=C[C@]4(C)[C@@]3(F)[C@@H](O)C[C@]2(C)[C@@]1(O)C(=O)CO [BETAMETHASONE],> 133,> 133,> 133,> 133
C[C@H](CS)C(=O)N1CCC[C@H]1C(=O)O [CAPTOPRIL],> 133,> 133,> 133,> 133
[H]/N=C(/N)N/C(=N/[H])NCCc1ccccc1 [PHENFORMIN],> 133,> 133,> 133,> 133
CN1CCN(C2=Nc3cc(Cl)ccc3Nc3ccccc32)CC1 [CLOZAPINE],> 133,> 133,> 133,> 133
Nc1ccn([C@@H]2O[C@H](CO)[C@@H](O)C2(F)F)c(=O)n1 [GEMCITABINE HYDROCHLORIDE],> 133,> 133,> 133,> 133
Nc1nc(F)nc2c1ncn2[C@@H]1O[C@H](COP(=O)(O)O)[C@@H](O)[C@@H]1O [FLUDARABINE PHOSPHATE],> 133,> 133,> 133,> 133
CC(=O)CCCCn1c(=O)c2c(ncn2C)n(C)c1=O [PENTOXIFYLLINE],> 133,> 133,> 133,> 133
O=C(NC[C@H]1CN(c2ccc(N3CCOCC3=O)cc2)C(=O)O1)c1ccc(Cl)s1 [RIVAROXABAN],> 133,> 133,> 133,> 133
CC[C@H]1OC(=O)[C@H](C)[C@@H](O[C@H]2C[C@@](C)(OC)[C@@H](O)[C@H](C)O2)[C@H](C)[C@@H](O[C@@H]2O[C@H](C)C[C@H](N(C)C)[C@H]2O)[C@](C)(OC)C[C@@H](C)C(=O)[C@H](C)[C@@H](O)[C@]1(C)O [CLARITHROMYCIN],> 133,> 133,> 133,> 133
CCCc1cc(=O)[nH]c(=S)[nH]1 [PROPYLTHIOURACIL],> 133,> 133,> 133,> 133
CS(=O)(=O)c1ccc(C2=C(c3ccccc3)C(=O)OC2)cc1 [ROFECOXIB],> 133,> 133,> 133,> 133

Compound,IC50 [1] [µM],IC50 (Bile salt export pump) [µM],IC50 [2] [µM],IC50 [3] [µM]
c1cnc2cc3c(cc2n1)[C@@H]1CNC[C@H]3C1,> 133,> 133,> 133,> 133
Cc1nc2ccc(CN(C)c3ccc(C(=O)N[C@@H](CCC(=O)O)C(=O)O)s3)cc2c(=O)[nH]1 [RALTITREXED],> 133,> 133,> 133,> 133
CC(C)NCC(O)c1ccc(NS(C)(=O)=O)cc1 (stereo not drawn) [SOTALOL],> 133,> 133,> 133,> 133
CC1=NS(=O)(=O)c2cc(Cl)ccc2N1 [DIAZOXIDE],> 133,> 133,> 133,> 133
CCN(CC)CCNC(=O)c1cc(Br)c(N)cc1OC [BROMOPRIDE],> 133,> 133,> 133,> 133
CC(C)=CCC1C(=O)N(c2ccccc2)N(c2ccccc2)C1=O [FEPRAZONE],> 133,73.9,> 133,> 133
SPIRAMYCIN,> 133,> 133,> 133,> 133
CC[C@H]1OC(=O)[C@H](C)[C@@H](O[C@H]2C[C@@](C)(OC)[C@@H](O)[C@H](C)O2)[C@H](C)[C@@H](O[C@@H]2O[C@H](C)C[C@H](N(C)C)[C@H]2O)[C@](C)(O)C[C@@H](C)/C(=N\OCOCCOC)[C@H](C)[C@@H](O)[C@]1(C)O [ROXITHROMYCIN],> 133,> 133,> 133,> 133
CC(=O)Oc1ccccc1C(=O)Nc1ncc([N+](=O)[O-])s1 [NITAZOXANIDE],> 133,> 133,> 133,> 133
O=C1c2c(O)cccc2Cc2cccc(O)c21 [ANTHRALIN],> 133,> 133,> 133,> 133
CC(C)[C@H](N)C(=O)OCCOCn1cnc2c(=O)[nH]c(N)nc21 [VALACYCLOVIR HYDROCHLORIDE],> 133,> 133,> 133,> 133
CC(C)C[C@H](CN)CC(=O)O [PREGABALIN],> 133,> 133,> 133,> 133
CCN(CCO)CCCC(C)Nc1ccnc2cc(Cl)ccc12 (stereo not drawn) [HYDROXYCHLOROQUINE SULFATE],> 133,> 133,> 133,> 133
CCCCCCCCCC(=O)N[C@@H](Cc1c[nH]c2ccccc12)C(=O)N[C@H](CC(N)=O)C(=O)N[C@@H](CC(=O)O)C(=O)N[C@@H]1C(=O)NCC(=O)N[C@@H](CCCN)C(=O)N[C@@H](CC(=O)O)C(=O)N[C@H](C)C(=O)N[C@@H](CC(=O)O)C(=O)NCC(=O)N[C@H](CO)C(=O)N[C@@H]([C@H](C)CC(=O)O)C(=O)N[C@@H](CC(=O)c2ccccc2N)C(=O)O[C@@H]1C [DAPTOMYCIN],29.1,> 133,> 133,> 133
CNC1=Nc2ccc(Cl)cc2C(c2ccccc2)=[N+]([O-])C1 [CHLORDIAZEPOXIDE],> 133,44.1,> 133,> 133
CCN1CCCC1CNC(=O)c1cc(S(=O)(=O)CC)c(N)cc1OC (stereo not drawn) [AMISULPRIDE],> 133,> 133,> 133,> 133
CC(C(=O)O)c1ccc2c(c1)Cc1cccnc1O2 (stereo not drawn) [PRANOPROFEN],> 133,> 133,9.8,> 133
CCN[C@H]1CN(CCCOC)S(=O)(=O)c2sc(S(N)(=O)=O)cc21 [BRINZOLAMIDE],> 133,> 133,> 133,> 133
